Assay results as given in ChEMBL document CHEMBL4152339, “Design and synthesis of novel 1H-tetrazol-5-amine based potent antimicrobial agents: DNA topoisomerase IV and gyrase affinity evaluation supported by molecular docking studies” (Eur J Med Chem, 2018).
Values after ≈ are worked out from the molar mass of the structure shown.

What was measured:
Pseudomonas aeruginosa [1] = experiment: Antibacterial activity against Pseudomonas aeruginosa ATCC 15442 after 18 hrs by CLSI disc diffusion method; assay type: functional; settings: ATCC 15442, 18 h
Staphylococcus aureus [2] = experiment: Antibacterial activity against Staphylococcus aureus 572 after 18 hrs by CLSI disc diffusion method; assay type: functional; settings: Staphylococcus aureus, 572, 18 h
Pseudomonas aeruginosa [3] = experiment: Antibacterial activity against Pseudomonas aeruginosa 6m after 18 hrs by CLSI disc diffusion method; assay type: functional
[4] = Selectivity index, ratio of IC50 for human HaCaT cells to MIC for Bordetella bronchiseptica ATCC 4617; assay type: toxicity; settings: read-out: Selectivity Index
Micrococcus luteus [5] = experiment: Antibacterial activity against Micrococcus luteus ATCC 9341 after 18 hrs by CLSI disc diffusion method; assay type: functional; settings: ATCC 9341, 18 h
[6] = test system: Staphylococcus epidermidis; experiment: Antibacterial activity against Staphylococcus epidermidis ATCC 12228 after 18 hrs by CLSI disc diffusion method; assay type: functional; settings: ATCC 12228, 18 h
[7] = test system: Staphylococcus epidermidis; experiment: Antibacterial activity against Staphylococcus epidermidis 431 after 18 hrs by CLSI disc diffusion method; assay type: functional; settings: Staphylococcus epidermidis, 431, 18 h
Escherichia coli [8] = experiment: Antibacterial activity against Escherichia coli ML 5 after 18 hrs by CLSI disc diffusion method; assay type: functional; settings: ML 5, 18 h
Escherichia coli [9] = experiment: Antibacterial activity against Escherichia coli ML 9 after 18 hrs by CLSI disc diffusion method; assay type: functional; settings: ML 9, 18 h
Enterococcus faecalis = experiment: Antibacterial activity against Enterococcus faecalis ATCC 29212 after 18 hrs by CLSI disc diffusion method; assay type: functional; settings: ATCC 29212, 18 h
Escherichia coli [10] = experiment: Antibacterial activity against Escherichia coli ML 17 after 18 hrs by CLSI disc diffusion method; assay type: functional; settings: ML 17, 18 h
Staphylococcus aureus [11] = experiment: Antibacterial activity against Staphylococcus aureus ATCC 6538 after 18 hrs by CLSI disc diffusion method; assay type: functional; settings: ATCC 6538, 18 h
Staphylococcus aureus [12] = experiment: Antibacterial activity against Staphylococcus aureus 496 after 18 hrs by CLSI disc diffusion method; assay type: functional; settings: Staphylococcus aureus, 496, 18 h
[13] = test system: Bordetella bronchiseptica; experiment: Antibacterial activity against Bordetella bronchiseptica ATCC 4617 after 18 hrs by CLSI disc diffusion method; assay type: functional; settings: ATCC 4617, 18 h
Bacillus spizizenii = experiment: Antibacterial activity against Bacillus subtilis ATCC 6633 after 18 hrs by CLSI disc diffusion method; assay type: functional; settings: ATCC 6633, 18 h
[14] = test system: Staphylococcus epidermidis; experiment: Antibacterial activity against Staphylococcus epidermidis 511 after 18 hrs by CLSI disc diffusion method; assay type: functional; settings: Staphylococcus epidermidis, 511, 18 h
Pseudomonas aeruginosa [15] = experiment: Antibacterial activity against Pseudomonas aeruginosa 12m after 18 hrs by CLSI disc diffusion method; assay type: functional
Staphylococcus aureus [16] = experiment: Antibacterial activity against Staphylococcus aureus 586 after 18 hrs by CLSI disc diffusion method; assay type: functional; settings: Staphylococcus aureus, 586, 18 h
Escherichia coli [17] = experiment: Antibacterial activity against Escherichia coli ML 8 after 18 hrs by CLSI disc diffusion method; assay type: functional; settings: ML 8, 18 h
Staphylococcus aureus [18] = experiment: Antibacterial activity against Staphylococcus aureus 585 after 18 hrs by CLSI disc diffusion method; assay type: functional; settings: Staphylococcus aureus, 585, 18 h
Pseudomonas aeruginosa [19] = experiment: Antibacterial activity against Pseudomonas aeruginosa 16m after 18 hrs by CLSI disc diffusion method; assay type: functional
Staphylococcus aureus [20] = experiment: Antibacterial activity against Staphylococcus aureus 497 after 18 hrs by CLSI disc diffusion method; assay type: functional; settings: Staphylococcus aureus, 497, 18 h
[21] = Selectivity index, ratio of IC50 for human HaCaT cells to MIC for Enterococcus hirae ATCC 10541; assay type: toxicity; settings: read-out: Selectivity Index
Bacillus cereus = experiment: Antibacterial activity against Bacillus cereus ATCC 11778 after 18 hrs by CLSI disc diffusion method; assay type: functional; settings: ATCC 11778, 18 h
Pseudomonas aeruginosa [22] = experiment: Antibacterial activity against Pseudomonas aeruginosa 11m after 18 hrs by CLSI disc diffusion method; assay type: functional
Staphylococcus aureus [23] = experiment: Antibacterial activity against Staphylococcus aureus NCTC 4163 after 18 hrs by CLSI disc diffusion method; assay type: functional; settings: NCTC 4163, 18 h
[24] = test system: Staphylococcus epidermidis; experiment: Antibacterial activity against Staphylococcus epidermidis 423 after 18 hrs by CLSI disc diffusion method; assay type: functional; settings: Staphylococcus epidermidis, 423, 18 h
Staphylococcus aureus [25] = experiment: Antibacterial activity against Staphylococcus aureus ATCC 25923 after 18 hrs by CLSI disc diffusion method; assay type: functional; settings: ATCC 25923, 18 h
[26] = test system: Staphylococcus epidermidis; experiment: Antibacterial activity against Staphylococcus epidermidis 510 after 18 hrs by CLSI disc diffusion method; assay type: functional; settings: Staphylococcus epidermidis, 510, 18 h
Pseudomonas aeruginosa [27] = experiment: Antibacterial activity against Pseudomonas aeruginosa ATCC 27853 after 18 hrs by CLSI disc diffusion method; assay type: functional; settings: ATCC 27853, 18 h
Escherichia coli [28] = experiment: Antibacterial activity against Escherichia coli ML 12 after 18 hrs by CLSI disc diffusion method; assay type: functional; settings: ML 12, 18 h
Escherichia coli [29] = experiment: Antibacterial activity against Escherichia coli ML 6 after 18 hrs by CLSI disc diffusion method; assay type: functional; settings: ML 6, 18 h
Staphylococcus aureus [30] = experiment: Antibacterial activity against Staphylococcus aureus 495 after 18 hrs by CLSI disc diffusion method; assay type: functional; settings: Staphylococcus aureus, 495, 18 h
Micrococcus luteus [31] = experiment: Antibacterial activity against Micrococcus luteus ATCC 10240 after 18 hrs by CLSI disc diffusion method; assay type: functional; settings: ATCC 10240, 18 h
[32] = Selectivity index, ratio of IC50 for human HaCaT cells to MIC for Escherichia coli ATCC 10538; assay type: toxicity; settings: read-out: Selectivity Index
[33] = Selectivity index, ratio of IC50 for human HaCaT cells to MIC for Staphylococcus aureus NCTC 4163; assay type: toxicity; settings: read-out: Selectivity Index
Pseudomonas aeruginosa [34] = experiment: Antibacterial activity against Pseudomonas aeruginosa 7m after 18 hrs by CLSI disc diffusion method; assay type: functional
Enterococcus hirae = experiment: Antibacterial activity against Enterococcus hirae ATCC 10541 after 18 hrs by CLSI disc diffusion method; assay type: functional; settings: ATCC 10541, 18 h
Pseudomonas aeruginosa [35] = experiment: Antibacterial activity against Pseudomonas aeruginosa 10m after 18 hrs by CLSI disc diffusion method; assay type: functional
Staphylococcus aureus [36] = experiment: Antibacterial activity against Staphylococcus aureus 537 after 18 hrs by CLSI disc diffusion method; assay type: functional; settings: Staphylococcus aureus, 537, 18 h
Staphylococcus aureus [37] = experiment: Antibacterial activity against Staphylococcus aureus 498 after 18 hrs by CLSI disc diffusion method; assay type: functional; settings: Staphylococcus aureus, 498, 18 h
Pseudomonas aeruginosa [38] = experiment: Antibacterial activity against Pseudomonas aeruginosa 18m after 18 hrs by CLSI disc diffusion method; assay type: functional
Proteus vulgaris = experiment: Antibacterial activity against Proteus vulgaris NCTC 4635 after 18 hrs by CLSI disc diffusion method; assay type: functional; settings: NCTC 4635, 18 h
[39] = Selectivity index, ratio of IC50 for human HaCaT cells to MIC for Proteus vulgaris NCTC 4635; assay type: toxicity; settings: read-out: Selectivity Index
[40] = test system: Staphylococcus epidermidis; experiment: Antibacterial activity against Staphylococcus epidermidis 469 after 18 hrs by CLSI disc diffusion method; assay type: functional; settings: Staphylococcus epidermidis, 469, 18 h
[41] = test system: Staphylococcus epidermidis; experiment: Antibacterial activity against Staphylococcus epidermidis ATCC 35984 after 18 hrs by CLSI […] method; assay type: functional; settings: ATCC 35984, 18 h
[42] = Selectivity index, ratio of IC50 for human HaCaT cells to MIC for Bacillus subtilis ATCC 6633; assay type: toxicity; settings: read-out: Selectivity Index
HaCaT = experiment: Cytotoxicity activity against human HaCaT cells assessed as reduction in cell viability after 72 hrs by MTT assay; assay type: cell-based
Escherichia coli [43] = experiment: Antibacterial activity against Escherichia coli ATCC 10538 after 18 hrs by CLSI disc diffusion method; assay type: functional; settings: ATCC 10538, 18 h
A549 = experiment: Cytotoxicity activity against human A549 cells assessed as reduction in cell viability after 72 hrs by MTT assay; assay type: cell-based; settings: A549, 72 h
[44] = test system: Staphylococcus epidermidis; experiment: Antibacterial activity against Staphylococcus epidermidis 471 after 18 hrs by CLSI disc diffusion method; assay type: functional; settings: Staphylococcus epidermidis, 471, 18 h
[45] = test system: Staphylococcus epidermidis; experiment: Antibacterial activity against Staphylococcus epidermidis 433 after 18 hrs by CLSI disc diffusion method; assay type: functional; settings: Staphylococcus epidermidis, 433, 18 h
[46] = Inhibition of Staphylococcus aureus DNA topoisomerase 4 using Kinetoplast DNA as substrate after 30 mins by ethidium bromide staining based agarose gel electrophoresis method
Escherichia coli [47] = experiment: Antibacterial activity against Escherichia coli ML 15 after 18 hrs by CLSI disc diffusion method; assay type: functional; settings: ML 15, 18 h
Escherichia coli [48] = experiment: Antibacterial activity against Escherichia coli ML 16 after 18 hrs by CLSI disc diffusion method; assay type: functional; settings: ML 16, 18 h
[49] = test system: Staphylococcus epidermidis; experiment: Antibacterial activity against Staphylococcus epidermidis 432 after 18 hrs by CLSI disc diffusion method; assay type: functional; settings: Staphylococcus epidermidis, 432, 18 h
Pseudomonas aeruginosa [50] = experiment: Antibacterial activity against Pseudomonas aeruginosa 31m after 18 hrs by CLSI disc diffusion method; assay type: functional
[51] = Selectivity index, ratio of IC50 for human HaCaT cells to MIC for Micrococcus luteus ATCC 10240; assay type: toxicity; settings: read-out: Selectivity Index

Compound `Cc1ccc(-n2nnnc2NCc2ccco2)cc1Cl` has an MIC (Pseudomonas aeruginosa [1]) of 111 µM (≈ 32.2 µg/mL), an MIC (Staphylococcus aureus [2]) of 14 µM (≈ 4.06 µg/mL) and an MIC (Pseudomonas aeruginosa [3]) of 14 µM (≈ 4.06 µg/mL). It also gave a selectivity ratio [4] of 11.4, an MIC (Micrococcus luteus [5]) of 14 µM (≈ 4.06 µg/mL) and an MIC [6] of 7 µM (≈ 2.03 µg/mL). The MIC [7] was 7 µM (≈ 2.03 µg/mL), the MIC (Escherichia coli [8]) was 14 µM (≈ 4.06 µg/mL) and the MIC (Escherichia coli [9]) was 28 µM (≈ 8.11 µg/mL). For the same compound, the MIC (Enterococcus faecalis) was 56 µM (≈ 16.2 µg/mL), the MIC (Escherichia coli [10]) was 14 µM (≈ 4.06 µg/mL) and the MIC (Staphylococcus aureus [11]) was 7 µM (≈ 2.03 µg/mL). For the same compound, the MIC (Staphylococcus aureus [12]) was 14 µM (≈ 4.06 µg/mL), the MIC [13] was 14 µM (≈ 4.06 µg/mL) and the MIC (Bacillus spizizenii) was 7 µM (≈ 2.03 µg/mL). It also gave an MIC [14] of 14 µM (≈ 4.06 µg/mL), an MIC (Pseudomonas aeruginosa [15]) of 14 µM (≈ 4.06 µg/mL) and an MIC (Staphylococcus aureus [16]) of 14 µM (≈ 4.06 µg/mL). It also gave an MIC (Escherichia coli [17]) of 14 µM (≈ 4.06 µg/mL), an MIC (Staphylococcus aureus [18]) of 7 µM (≈ 2.03 µg/mL) and an MIC (Pseudomonas aeruginosa [19]) of 28 µM (≈ 8.11 µg/mL). It also gave an MIC (Staphylococcus aureus [20]) of 7 µM (≈ 2.03 µg/mL), a selectivity ratio [21] of 2.85 and an MIC (Bacillus cereus) of 7 µM (≈ 2.03 µg/mL). It also gave an MIC (Pseudomonas aeruginosa [22]) of 28 µM (≈ 8.11 µg/mL), an MIC (Staphylococcus aureus [23]) of 14 µM (≈ 4.06 µg/mL) and an MIC [24] of 7 µM (≈ 2.03 µg/mL). It also gave an MIC (Staphylococcus aureus [25]) of 14 µM (≈ 4.06 µg/mL), an MIC [26] of 14 µM (≈ 4.06 µg/mL) and an MIC (Pseudomonas aeruginosa [27]) of 14 µM (≈ 4.06 µg/mL). The MIC (Escherichia coli [28]) was 111 µM (≈ 32.2 µg/mL), the MIC (Escherichia coli [29]) was 111 µM (≈ 32.2 µg/mL) and the MIC (Staphylococcus aureus [30]) was 7 µM (≈ 2.03 µg/mL). For the same compound, the MIC (Micrococcus luteus [31]) was 7 µM (≈ 2.03 µg/mL), the selectivity ratio [32] was 11.4 and the selectivity ratio [33] was 5.71. It also gave an MIC (Pseudomonas aeruginosa [34]) of 14 µM (≈ 4.06 µg/mL), an MIC (Enterococcus hirae) of 28 µM (≈ 8.11 µg/mL) and an MIC (Pseudomonas aeruginosa [35]) of 14 µM (≈ 4.06 µg/mL). The MIC (Staphylococcus aureus [36]) was 14 µM (≈ 4.06 µg/mL), the MIC (Staphylococcus aureus [37]) was 7 µM (≈ 2.03 µg/mL) and the MIC (Pseudomonas aeruginosa [38]) was 28 µM (≈ 8.11 µg/mL). It also gave an MIC (Proteus vulgaris) of 14 µM (≈ 4.06 µg/mL), a selectivity ratio [39] of 11.4 and an MIC [40] of 7 µM (≈ 2.03 µg/mL). The MIC [41] was 7 µM (≈ 2.03 µg/mL), the selectivity ratio [42] was 11.4 and the IC50 (HaCaT) was 80 µM. It also gave an MIC (Escherichia coli [43]) of 14 µM (≈ 4.06 µg/mL), an IC50 (A549) of 78 µM and an MIC [44] of 14 µM (≈ 4.06 µg/mL). It also gave an MIC [45] of 14 µM (≈ 4.06 µg/mL), an IC50 [46] of 11.9 µg/mL (≈ 41.1 µM) and an MIC (Escherichia coli [47]) of 111 µM (≈ 32.2 µg/mL). The MIC (Escherichia coli [48]) was 14 µM (≈ 4.06 µg/mL), the MIC [49] was 14 µM (≈ 4.06 µg/mL) and the MIC (Pseudomonas aeruginosa [50]) was 14 µM (≈ 4.06 µg/mL). The selectivity ratio [51] was 11.4.
